From ChEMBL document CHEMBL1147906, “A comparative study of mesoionic compounds in Leishmania sp. and toxicity evaluation” (Eur J Med Chem, 2007)
pEC50: −log10 of the molar value.

What was measured:
[1] = Cytotoxicity against BALB/c mouse peritoneal macrophages assessed as cell viability after 24 hrs by MTT assay; assay type: cell-based, Peritoneal macrophage cell; conditions: read-out: TD50
Leishmania braziliensis = assay: Antileishmanial activity against Leishmania braziliensis MCAN/BR/98/R619 promastigotes; assay type: functional; conditions: read-out: ED50 (the source's name)
Leishmania chagasi = assay: Antileishmanial activity against Leishmania chagasi MCAN/BR/97/P142 promastigotes; assay type: functional; conditions: read-out: ED50 (the source's name)

SMILES	pEC50 (Leishmania braziliensis)	pEC50 (Leishmania chagasi)	CC50 at 24 h [1]
O=[N+]([O-])c1ccc(/C=C/c2sc(Nc3ccccc3)n[n+]2-c2ccccc2)cc1	4.15	4.64	5.49 µM
COc1ccc(/C=C/c2sc(Nc3ccccc3)n[n+]2-c2ccccc2)cc1	4.34	5.08	1.13 µM
C(=C\c1sc(Nc2ccccc2)n[n+]1-c1ccccc1)/c1ccccc1	4.30	4.64	3.06 µM
Brc1cccc(/C=C/c2sc(Nc3ccccc3)n[n+]2-c2ccccc2)c1	4.59	3.84	2.47 µM
O=[N+]([O-])c1cccc(/C=C/c2sc(Nc3ccccc3)n[n+]2-c2ccccc2)c1	3.65	4.63	5.54 µM
N#Cc1ccc(/C=C/c2sc(Nc3ccccc3)n[n+]2-c2ccccc2)cc1	4.55	4.80	441 µM
Oc1ccc(/C=C/c2sc(Nc3ccccc3)n[n+]2-c2ccccc2)cc1	3.42	3.38	32 µM
N=C(N)c1ccc(OCCCCCOc2ccc(C(=N)N)cc2)cc1 [PENTAMIDINE]	4.19	4.56	2.21 µM
COc1cccc(/C=C/c2sc(Nc3ccccc3)n[n+]2-c2ccccc2)c1	4.51	5.32	0.61 µM

These reach a higher pEC50 (Leishmania braziliensis). Values come first.

pEC50 (Leishmania braziliensis)	pEC50 (Leishmania chagasi)	SMILES	CC50 at 24 h [1]
4.68	4.51	Cc1ccc(/C=C/c2sc(Nc3ccccc3)n[n+]2-c2ccccc2)cc1	4.94 µM
4.89	4.48	CCOc1ccc(/C=C/c2sc(Nc3ccccc3)n[n+]2-c2ccccc2)cc1	9.73 µM
5.21	4.88	Clc1ccc(/C=C/c2sc(Nc3ccccc3)n[n+]2-c2ccccc2)cc1	12 µM
5.29	5.47	Fc1ccc(/C=C/c2sc(Nc3ccccc3)n[n+]2-c2ccccc2)cc1	5.82 µM
5.53	5.00	Brc1ccc(/C=C/c2sc(Nc3ccccc3)n[n+]2-c2ccccc2)cc1	6.59 µM
5.76	5.29	Clc1cccc(/C=C/c2sc(Nc3ccccc3)n[n+]2-c2ccccc2)c1	6.23 µM
